This is an account of results in patent US5324648A, “Substituted isocoumarins as serine protease inhibitors and anti-inflammatory agents” (Georgia Tech Research Corporation, priority 1992, dated 1994).

One data set concerns the target T1, human factor Xa (Homo sapiens, UniProt P00742).
T1 construct: human factor Xa
Nature of the data set: Inactivation rate of human factor Xa. The class given is biochemical. As to conditions: Table VIII; pH 7.5, 25° C; [I] 3.6-44 μM; read-out: kobs/[I]. On the procedure:
(§1) Inactivation rates of serine proteases by substituted isocoumarins were measured by the incubation method. An aliquot of inhibitor (25 or 50 μl) in Me2 SO was added to a buffered enzyme solution (0.01-2.3 μM) to initiate the inactivation. Aliquots (50 μl) were withdrawn at various intervals and the residual enzymatic activity was measured. Me2 SO concentration in the reaction mixture was 8-12% (v/v). 0.1 Hepes, 0.01M CaCl2, pH 7.5 buffer was utilized for trypsin and coagulation enzymes. 0.1M Hepes, 0.5M NaCl, pH 7.5 was utilized for other serine proteases. The inhibitor concentrations are shown in all the tables. Peptide thioesters or peptide nitroanilides with appropriate sequence were used as substrates for various serine proteases. All peptide thioester hydrolysis rates were measured with assay mixtures containing 4,4'-dithiodipyridine (ε324 =19800M^-1 cm^-1; Grasetti & Murray, Arch. Biochem. Biophys. 119, pp 41-49 (1967)). Peptide 4-nitroanilide nitroanilide hydrolysis was measured at 410 nm (ε410 =8800M^-1 cm^-1; Erlanger et al., Arch. Biochem. Biophys. 95, pp 271-278 (1961)). First order inactivation rate constant (kobs) were obtained from plots of ln (vt /vo) vs time, and the correlation coefficients were greater than 0.98.
^a Conditions were as 0.1M Hepes, 0.01M CaCl2, pH 7.5 and 8-12%
Me2 SO and 25° C. Rate constants were measured by incubation
method unless otherwise noted. An aliquot of inhibitor was added to an
enzyme solution and aliquots removed with time and assayed for remaining
enzymatic activity. Firstorder rate constants, kobs were obtained
from the plots of ln(vt /vo) versus time.
(§2) ^a Inhibition rates were measured in 0.1M Hepes, 0.01M CaCl2, pH
7.5 buffer, 8% Me2 SO and at 25° C.

The next data set has as its target T2, rat skin tryptase (Rattus norvegicus, UniProt P27435).
T2 construct: from tissue; host or cells: rat skin
The experiment in a line: Inactivation rate of rat skin tryptase. The class given is biochemical. As to conditions: pH 7.5, Table IX; pH 7.5, 25° C; [I] 0.42-0.51 μM; read-out: kobs/[I]. In a few lines:
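Rat skin tryptase incubated with isocoumarin inhibitor in 25 mM phosphate, 0.5 M NaCl, 1 mM EDTA, pH 7.5, 8-9% Me2SO, 25 °C; aliquots withdrawn over time for residual activity on ZArg-SBzl (0.07 mM) with 4,4'-dithiodipyridine (0.33 mM). First-order kobs from ln(vt/vo) versus time.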

The target of data set [1] is recombinant human tissue plasminogen activator (Homo sapiens, UniProt P00750). Nature of the data set: Inactivation rate of recombinant human tissue plasminogen activator. The format is biochemical. Particulars: pH 7.5, Table IX; pH 7.5, 25° C; [I] 3.5-5.0 μM; read-out: kobs/[I]. In a few lines: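 Incubation method: enzyme mixed with inhibitor in Me2SO (8–12% v/v) in 0.1M Hepes, 0.5M NaCl, pH 7.5; aliquots withdrawn over time for residual activity with ZArg-SBzl (0.07 mM) plus 4,4'-dithiodipyridine (0.33 mM). kobs taken from ln(vt/vo) versus time plots.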

In another data set the target is T3, bovine thrombin (Bos taurus, UniProt P00735).
T3 construct: bovine thrombin
The experiment in a line: Inactivation rate of bovine thrombin. The class given is biochemical. Particulars: Table VIII; pH 7.5, 25° C; [I] 1.2-54 μM; read-out: kobs/[I]. In a few lines:
(§3)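 Residual activity was followed on peptide thioester (with 4,4'-dithiodipyridine, 324 nm) or 4-nitroanilide (410 nm) substrates after enzyme (0.01-2.3 μM) was incubated with isocoumarin at 25° C in 0.1M Hepes, 0.01M CaCl2, pH 7.5 containing 8-12% Me2SO. First-order kobs came from ln(vt/vo) versus time plots.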

A further data set deals with human skin tryptase. The experiment in a line: Inhibition of human skin tryptase. The class given is biochemical. As to conditions: Table IX; for kobs/[I]: pH 7.5, 25° C, [I] 0.34-0.39 μM. Here is the method: as §1, §2
7.5 buffer for human plasmin; 25 mM Phosphate, 0.5M NaCl, 1 mM EDTA, pH
7.5 buffer for rat skin tryptase and 0.1M Hepes, 0.5M NaCl, pH 7.5 for
human lung tryptase, human skin tryptase and rt-PA. All enzymes were
assayed with ZArg-SBzl (0.07 mM) in the presence of 4,4dithiodipyridine
(0.33 mM). Reaction mixtures contained 8% Me2 SO and assays were […]

The target in the next data set is T4, human factor XIIa (Homo sapiens, UniProt P00748).
T4 construct: human factor XIIa
T4 sequence (P00748 373-615 limits assumed): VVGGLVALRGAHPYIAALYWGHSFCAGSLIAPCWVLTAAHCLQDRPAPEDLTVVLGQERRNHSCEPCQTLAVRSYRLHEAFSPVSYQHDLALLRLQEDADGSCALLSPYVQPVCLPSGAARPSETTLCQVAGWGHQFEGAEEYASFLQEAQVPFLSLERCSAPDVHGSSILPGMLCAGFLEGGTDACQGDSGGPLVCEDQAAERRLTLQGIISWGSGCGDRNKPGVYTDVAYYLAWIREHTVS
T4 sequence (P00748 20-372 partner limits assumed): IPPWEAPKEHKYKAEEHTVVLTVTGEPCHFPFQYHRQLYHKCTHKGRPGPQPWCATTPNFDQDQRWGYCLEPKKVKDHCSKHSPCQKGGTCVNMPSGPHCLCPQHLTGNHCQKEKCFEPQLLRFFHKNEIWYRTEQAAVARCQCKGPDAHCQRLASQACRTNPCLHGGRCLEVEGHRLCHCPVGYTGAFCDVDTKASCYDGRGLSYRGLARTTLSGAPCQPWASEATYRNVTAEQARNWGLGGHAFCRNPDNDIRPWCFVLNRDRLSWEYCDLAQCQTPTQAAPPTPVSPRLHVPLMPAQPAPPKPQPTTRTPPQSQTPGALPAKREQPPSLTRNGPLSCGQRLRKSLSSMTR
The experiment in a line: Inactivation rate of human factor XIIa. The class given is biochemical. As to conditions: Table VIII; pH 7.5, 25° C; [I] 3.6-4.9 μM; read-out: kobs/[I]. The method in brief:
as §3

The target in a further data set is human lung tryptase. The experiment in a line: Inactivation rate of human lung tryptase. The format is biochemical. As to conditions: Table IX; pH 7.5, 25° C; [I] 0.42-0.47 μM. The method in brief: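 Incubation method in 0.1M Hepes, 0.5M NaCl, pH 7.5, 8% Me2SO, 25° C; inhibitor added to enzyme, aliquots withdrawn over time for residual activity. Substrate ZArg-SBzl (0.07 mM) with 4,4'-dithiodipyridine (0.33 mM). kobs from ln(vt/vo) vs time plots.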

In the next data set the target is T5, human thrombin (Homo sapiens, UniProt P00734).
T5 construct: human thrombin
The experiment in a line: Inactivation rate of human thrombin. The class given is biochemical. Particulars: Table VIII; pH 7.5, 25° C; [I] 1.2-54 μM; read-out: kobs/[I]. In a few lines: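 Incubation method: enzyme (0.01-2.3 μM) mixed with inhibitor in 0.1M Hepes, 0.01M CaCl2, pH 7.5, 8% Me2SO, 25° C; residual activity sampled over time with peptide thioester or 4-nitroanilide substrates. kobs from ln(vt/vo) vs time plots.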

In a further data set the target is T6, bovine trypsin (Bos taurus, UniProt P00760).
T6 sequence (P00760 24-246): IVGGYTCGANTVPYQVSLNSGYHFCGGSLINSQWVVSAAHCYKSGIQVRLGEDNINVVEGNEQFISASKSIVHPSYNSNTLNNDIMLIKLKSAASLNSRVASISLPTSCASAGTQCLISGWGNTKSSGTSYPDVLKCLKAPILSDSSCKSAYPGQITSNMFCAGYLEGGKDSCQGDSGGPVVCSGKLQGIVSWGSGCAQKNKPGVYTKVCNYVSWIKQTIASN
The experiment in a line: Inactivation rate of bovine trypsin. The format is biochemical. As to conditions: Table VIII; pH 7.5, 25° C; [I] 1.1-4.6 μM; read-out: kobs/[I]. The method in brief: as §3

Data set [2] in a line: Spontaneous hydrolysis in Hepes buffer. The format is physicochemical. Particulars: 0.1 Hepes, 0.5M NaCl, pH 7.5, 9% Me2SO, 25° C. On the procedure:
^a Conditions were 0.1 Hepes, 0.5M NaCl, pH 7.5 and 9% Me2 SO at
25° C. Spontaneous hydrolysis rates were measured
spectrophotometrically by monitoring the decrease in absorbance due to th
isocoumarin ring system (wavelength 335-380 nm) using the firstorder rate

The target of data set [3] is T7, porcine pancreatic elastase (PPE) (Sus scrofa, UniProt P00772).
T7 construct: from tissue; host or cells: porcine pancreas (from the name)
Nature of the data set: Inactivation of porcine pancreatic elastase (PPE). The format is biochemical. As to conditions: Table X; after 20 min incubation.

The target of data set [4] is T8, human leukocyte elastase (HLE) (Homo sapiens, UniProt P08246).
T8 construct: from tissue; host or cells: human leukocytes (from the name)
T8 sequence (P08246 30-267): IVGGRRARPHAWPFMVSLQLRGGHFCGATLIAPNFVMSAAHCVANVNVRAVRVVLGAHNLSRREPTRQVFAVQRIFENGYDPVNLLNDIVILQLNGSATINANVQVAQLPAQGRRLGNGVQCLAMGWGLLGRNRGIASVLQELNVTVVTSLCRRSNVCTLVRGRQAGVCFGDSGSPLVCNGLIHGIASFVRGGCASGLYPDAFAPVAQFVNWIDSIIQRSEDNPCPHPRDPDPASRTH
Nature of the data set: Inactivation of human leukocyte elastase (HLE). The format is biochemical. Particulars: Table X; pH 7.5, 25° C; [I] 2.1-42 μM; read-out: kobs/[I].

Another data set addresses T9, human plasmin (Homo sapiens, UniProt P00747).
T9 construct: human plasmin; from tissue; host or cells: human plasma
The experiment in a line: Inactivation rate of human plasmin. The class given is biochemical. Particulars: Table IX; 0.01M CaCl2, pH 7.5, 25° C; [I] 8.3-41 μM; read-out: kobs/[I].

A further data set concerns the target chymotrypsin (Bos taurus, UniProt P00766). Nature of the data set: Inactivation of chymotrypsin. Particulars: Table X; pH 7.5, 25° C; [I] 0.9-43 μM; read-out: kobs/[I]. The class given is biochemical, bovine.
The target in another data set is T10, cathepsin G (Homo sapiens, UniProt P08311).
T10 construct: from tissue; host or cells: human leukocytes
T10 sequence (P08311 21-255): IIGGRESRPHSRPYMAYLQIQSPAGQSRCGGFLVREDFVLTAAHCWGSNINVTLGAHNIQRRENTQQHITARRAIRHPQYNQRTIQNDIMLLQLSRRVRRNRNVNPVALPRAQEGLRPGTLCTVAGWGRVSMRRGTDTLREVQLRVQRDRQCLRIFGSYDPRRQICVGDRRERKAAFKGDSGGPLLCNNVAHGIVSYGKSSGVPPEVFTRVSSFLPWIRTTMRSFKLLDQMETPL
Nature of the data set: Inactivation of cathepsin G. The format is biochemical. As to conditions: Table X; pH 7.5, 25° C; [I] 33-46 μM; read-out: kobs/[I].

Sequence of recombinant human tissue plasminogen activator (P00750 36-562): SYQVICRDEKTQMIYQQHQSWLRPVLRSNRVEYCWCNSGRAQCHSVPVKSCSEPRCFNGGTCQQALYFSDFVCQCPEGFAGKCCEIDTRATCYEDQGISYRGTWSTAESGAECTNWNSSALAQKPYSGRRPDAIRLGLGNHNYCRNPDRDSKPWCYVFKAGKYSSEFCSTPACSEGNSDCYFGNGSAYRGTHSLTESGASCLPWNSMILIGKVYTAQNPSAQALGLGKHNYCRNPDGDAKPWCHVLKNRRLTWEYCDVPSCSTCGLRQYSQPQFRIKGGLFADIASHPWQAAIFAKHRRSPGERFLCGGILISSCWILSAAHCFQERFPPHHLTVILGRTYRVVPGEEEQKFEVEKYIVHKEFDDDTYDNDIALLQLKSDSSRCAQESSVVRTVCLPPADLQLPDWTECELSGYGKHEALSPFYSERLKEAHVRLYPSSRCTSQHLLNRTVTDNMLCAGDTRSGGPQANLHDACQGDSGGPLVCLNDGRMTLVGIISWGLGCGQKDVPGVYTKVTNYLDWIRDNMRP
T2 sequence (P27435 29-273): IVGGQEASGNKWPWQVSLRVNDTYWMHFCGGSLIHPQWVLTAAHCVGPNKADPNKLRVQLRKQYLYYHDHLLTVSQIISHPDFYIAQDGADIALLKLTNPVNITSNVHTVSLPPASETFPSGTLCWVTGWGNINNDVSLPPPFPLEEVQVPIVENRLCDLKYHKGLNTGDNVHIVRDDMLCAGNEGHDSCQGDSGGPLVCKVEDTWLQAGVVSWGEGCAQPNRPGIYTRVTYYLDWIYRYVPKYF
T1 sequence (P00742 235-488 limits assumed): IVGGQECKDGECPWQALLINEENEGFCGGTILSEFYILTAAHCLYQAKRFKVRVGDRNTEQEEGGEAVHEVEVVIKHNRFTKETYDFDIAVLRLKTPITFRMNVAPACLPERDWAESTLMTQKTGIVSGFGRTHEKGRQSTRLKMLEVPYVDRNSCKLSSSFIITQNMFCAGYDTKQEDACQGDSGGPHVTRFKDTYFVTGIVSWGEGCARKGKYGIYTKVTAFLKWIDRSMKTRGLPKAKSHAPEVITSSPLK
T1 sequence (P00742 41-179 partner limits assumed): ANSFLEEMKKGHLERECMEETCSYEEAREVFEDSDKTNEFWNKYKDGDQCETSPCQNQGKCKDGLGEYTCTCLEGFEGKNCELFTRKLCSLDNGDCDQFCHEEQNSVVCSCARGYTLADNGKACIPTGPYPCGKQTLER
T9 sequence (P00747 581-810 limits assumed): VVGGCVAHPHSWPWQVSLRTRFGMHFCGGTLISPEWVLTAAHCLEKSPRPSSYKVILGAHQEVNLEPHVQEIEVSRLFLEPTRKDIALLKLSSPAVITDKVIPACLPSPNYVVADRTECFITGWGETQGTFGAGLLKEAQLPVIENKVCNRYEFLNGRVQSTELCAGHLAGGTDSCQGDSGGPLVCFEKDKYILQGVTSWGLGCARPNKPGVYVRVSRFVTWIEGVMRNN
T9 sequence (P00747 97-580 partner limits assumed): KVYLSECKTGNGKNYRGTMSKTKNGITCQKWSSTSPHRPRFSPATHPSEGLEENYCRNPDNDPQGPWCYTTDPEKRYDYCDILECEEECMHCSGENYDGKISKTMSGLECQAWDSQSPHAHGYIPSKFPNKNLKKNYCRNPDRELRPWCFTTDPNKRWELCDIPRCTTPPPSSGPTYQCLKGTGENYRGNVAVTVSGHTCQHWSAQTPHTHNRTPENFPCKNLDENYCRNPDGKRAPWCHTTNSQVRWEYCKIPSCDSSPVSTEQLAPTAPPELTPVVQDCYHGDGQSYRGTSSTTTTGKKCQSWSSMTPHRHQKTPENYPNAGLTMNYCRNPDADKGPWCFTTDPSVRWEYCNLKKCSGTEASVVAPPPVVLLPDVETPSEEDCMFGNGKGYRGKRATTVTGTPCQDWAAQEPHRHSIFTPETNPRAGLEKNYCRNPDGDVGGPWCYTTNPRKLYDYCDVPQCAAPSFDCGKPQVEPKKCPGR
T7 sequence (P00772 27-266): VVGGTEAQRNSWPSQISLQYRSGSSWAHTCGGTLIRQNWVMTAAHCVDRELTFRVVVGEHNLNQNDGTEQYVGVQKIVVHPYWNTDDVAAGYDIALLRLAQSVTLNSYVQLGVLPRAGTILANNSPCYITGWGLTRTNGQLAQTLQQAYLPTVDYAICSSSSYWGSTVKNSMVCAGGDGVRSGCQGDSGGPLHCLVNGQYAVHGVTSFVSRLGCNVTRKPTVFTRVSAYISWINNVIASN

Turning to `N=C(N)SCCOc1oc(=O)c2cc(NC(=O)[C@H](N)Cc3ccccc3)ccc2c1Cl` [D-Phe--NH-CiTEtOIC, 7-(D-phenylalanylamino)-4-chloro-3-(2-isothiureidoethoxy)isocoumarin], the kinact/KI at human factor Xa worked out at 3070 M⁻¹ s⁻¹; on rat skin tryptase it was 360000 M⁻¹ s⁻¹; in [1], 15000 M⁻¹ s⁻¹; on bovine thrombin, 4240 M⁻¹ s⁻¹; on human factor XIIa, 82000 M⁻¹ s⁻¹; on human thrombin, 3070 M⁻¹ s⁻¹. Further, the “kobs/[I]” value is given as 62,000 M^-1 s^-1 at human skin tryptase and 60,000 M^-1 s^-1 at human lung tryptase.
Turning to `N=C(N)SCCCOc1oc(=O)c2cc(NC(=O)NCc3ccccc3)ccc2c1Cl` [PhCH2 NHCONH-CiTPrOIC, 7-(benzylcarbamoylamino)-4-chloro-3-(3-isothiureidopropoxy)isocoumarin], the kinact/KI worked out at 51000 M⁻¹ s⁻¹ on bovine trypsin; 270000 M⁻¹ s⁻¹ at rat skin tryptase; 18000 M⁻¹ s⁻¹ in data set [1]; 420 M⁻¹ s⁻¹ at bovine thrombin; 250 M⁻¹ s⁻¹ in [4]; 5120 M⁻¹ s⁻¹ at human plasmin. Further, the kinact/KI at chymotrypsin is 13400 M⁻¹ s⁻¹; on cathepsin G, 50 M⁻¹ s⁻¹; on human thrombin, 700 M⁻¹ s⁻¹. The “t1/2 for spontaneous hydrolysis” value in data set [2] stood at 2.47 h. Besides, the percentage of inhibition is 68% in the data set on human skin tryptase (not time dependent, at 0.34-5.0 μM) and 9% in data set [3]. Besides, the “kobs/[I]” value at human lung tryptase was 190,000 M^-1 s^-1.
As to `N=C(N)SCCCOc1oc(=O)c2cc(NC(=O)Nc3ccccc3)ccc2c1Cl` [PhNHCONH-CiTPrOIC, 7-(phenylcarbamoylamino)-4-chloro-3-(3-isothiureidopropoxy)isocoumarin], the kinact/KI turned out to be 63000 M⁻¹ s⁻¹ on bovine trypsin; 50 M⁻¹ s⁻¹ at human factor Xa; 250000 M⁻¹ s⁻¹ at rat skin tryptase; 19000 M⁻¹ s⁻¹ in data set [1]; 970 M⁻¹ s⁻¹ at bovine thrombin; 7720 M⁻¹ s⁻¹ on human factor XIIa. For the same compound, the kinact/KI on human thrombin is 1840 M⁻¹ s⁻¹. For the same compound, the “t1/2 for spontaneous hydrolysis” value in data set [2] was found to be 2.47 h. Further, the figures for the “kobs/[I]” value on human skin tryptase and on human lung tryptase were 38,000 M^-1 s^-1 and 140,000 M^-1 s^-1, respectively.
